Patent US9663536B2, “Inhibitors of human immunodeficiency virus replication” (priority 2013, dated 2017)

Test system: recombinant NL-Rluc virus
Test: Inhibition of HIV replication (NL-Rluc virus in MT-2 cells, luciferase readout)
Assay type: cell-based
Conditions: Human immunodeficiency virus 1, MT2, 120 h

SMILES	EC50
Cc1nc2cc3nn2c(c1[C@H](OC(C)(C)C)C(=O)O)N1CCC(C)(C/C=C/CCc2cc(F)ccc2Cc2cnc-3s2)CC1 (single isomer, unassigned) [Example 18]	11 nM
Cc1nc2cc3nn2c(c1[C@H](OC(C)(C)C)C(=O)O)N1CCC(C)(CC1)OCCCCOc1ccccc1Cc1cnn-3c1 [Example 25, (2S)-2-(tert-Butoxy)-2-{4,27-dimethyl-21,26-dioxa-1,5,7,8,10,11-hexaazahexacyclo[25.2.2.1^6,9.1^10,13.0^2,7.0^15,20]tritriaconta-2,4,6(33),8,11,13(32),15(20),16,18-nonaen-3-yl}acetic acid]	5 nM
Cc1nc2cc3nn2c(c1[C@H](OC(C)(C)C)C(=O)O)N1CCC(C)(CC1)OCCCCOc1ccccc1Cc1cnc-3s1 [Example 5, (2S)-2-(tert-Butoxy)-2-{4,27-dimethyl-21,26-dioxa-32-thia-1,5,7,8,11-pentaazahexacyclo[25.2.2.1^6,9.1^10,13.0^2,7.0^15,20]tritriaconta-2,4,6(33),8,10,12,15(20),16,18-nonaen-3-yl}Acetic Acid]	6 nM
Cc1nc2cc3nn2c(c1[C@H](OC(C)(C)C)C(=O)O)N1CCC(C)(C/C=C/CCc2ccc(F)cc2Cc2cnc-3s2)CC1 (single isomer, unassigned) [Example 23]	7 nM
Cc1nc2cc3nn2c(c1[C@H](OC(C)(C)C)C(=O)O)N1CCC(C)(CC/C=C/COc2cccc(c2)Cc2cnn-3c2)CC1 [Example 37]	3 nM
Cc1nc2cc3nn2c(c1[C@H](OC(C)(C)C)C(=O)O)N1CCC(C)(CC1)OCCCCOc1c(F)cccc1Cc1cnn-3c1 [Example 28, (2S)-2-(tert-Butoxy)-2-{19-fluoro-4,27-dimethyl-21,26-dioxa-1,5,7,8,10,11-hexaazahexacyclo[25.2.2.1^6,9.1^10,13.0^2,7.0^15,20]tritriaconta-2,4,6(33),8,11,13(32),15(20),16,18-nonaen-3-yl}acetic acid]	11 nM
Cc1nc2cc3nn2c(c1[C@H](OC(C)(C)C)C(=O)O)N1CCC(C)(CC1)OC/C=C/COc1c(F)cccc1Cc1cnn-3c1 [Example 27, (2S)-2-(tert-Butoxy)-2-[(23E)-19-fluoro-4,27-dimethyl-21,26-dioxa-1,5,7,8,10,11-hexaazahexacyclo[25.2.2.1^6,9.1^10,13.0^2,7.0^15,20]tritriaconta-2,4,6(33),8,11,13(32),15(20),16,18,23-decaen-3-yl]acetic acid]	48 nM
Cc1nc2cc3nn2c(c1[C@H](OC(C)(C)C)C(=O)O)N1CCC(C)(CC1)OC/C=C/Cc1ccccc1Cc1cnc-3s1 (single isomer, unassigned) [Example 1]	2 nM
Cc1nc2cc3nn2c(c1[C@H](OC(C)(C)C)C(=O)O)N1CCC(C)(CC1)OC/C=C/COc1ccccc1Cc1cnn-3c1 [Example 26, (2S)-2-(tert-Butoxy)-2-[(23E)-4,27-dimethyl-21,26-dioxa-1,5,7,8,10,11-hexaazahexacyclo[25.2.2.1^6,9.1^10,13.0^2,7.0^15,20]tritriaconta-2,4,6(33),8,11,13(32),15(20),16,18,23-decaen-3-yl]acetic acid]	2 nM
Cc1nc2cc3nn2c(c1[C@H](OC(C)(C)C)C(=O)O)N1CCC(C)(CCCCCOc2ccccc2Cn2cc-3cn2)CC1 [Example 40, (2S)-2-(tert-Butoxy)-2-{4,27-dimethyl-21-oxa-1,5,7,8,12,13-hexaazahexacyclo[25.2.2.1^6,9.1^10,13.0^2,7.0^15,20]tritriaconta-2,4,6(33),8,10(32),11,15(20),16,18-nonaen-3-yl}acetic acid]	4 nM
Cc1nc2cc3nn2c(c1[C@H](OC(C)(C)C)C(=O)O)N1CCC(C)(CCCCCCc2ccccc2Cc2cnc-3s2)CC1 [Example 14, (2S)-2-(tert-Butoxy)-2-{4,27-dimethyl-32-thia-1,5,7,8,11-pentaazahexacyclo[25.2.2.1^6,9.1^10,13.0^2,7.0^15,20]tritriaconta-2,4,6(33),8,10,12,15(20),16,18-nonaen-3-yl}acetic acid]	41 nM
